Experimental data reported in ChEMBL document CHEMBL5154863, “Design and synthesis of quinolinium-based derivatives targeting FtsZ for antibacterial evaluation and mechanistic study” (Eur J Med Chem, 2022).
Activity calls are given as the source filed them. The rule behind the calls is not given here.

Key:
Staphylococcus aureus [1] = test: Antibacterial activity against methicillin-resistant Staphylococcus aureus ATCC 43300 assessed as inhibition of bacterial growth incubated for 20 to 24 hrs by broth micro dilution method; type: functional; details: time 20-24 hrs
Staphylococcus aureus [2] = test: Induction of drug resistance against Staphylococcus aureus ATCC 29213 assessed as fold increase in MIC after 16 passage; type: functional
Bacillus subtilis [3] = test: Antibacterial activity against Bacillus subtilis CMCC (B) 63501 assessed as inhibition of bacterial growth incubated for 20 to 24 hrs by broth micro dilution method; type: functional; details: time 20-24 hrs
Enterococcus faecalis = test: Antibacterial activity against Enterococcus faecalis ATCC 29212 assessed as inhibition of bacterial growth incubated for 20 to 24 hrs by broth micro dilution method; type: functional; details: time 20-24 hrs
Staphylococcus aureus [4] = test: Antibacterial activity against methicillin-resistant Staphylococcus aureus ATCC BAA41 assessed as fractional inhibitory concentration index incubated for 24 hrs by checker board assay; type: functional
Enterococcus faecium [5] = test: Bactericidal activity against Enterococcus faecium ATCC 700221 assessed as inhibition of bacterial growth incubated for 24 hrs by resazurin dye based microtiter plate assay; type: functional
Escherichia coli [6] = test: Antibacterial activity against Escherichia coli ATCC 25922 assessed as inhibition of bacterial growth incubated for 20 to 24 hrs by broth micro dilution method; type: functional; details: time 20-24 hrs
Staphylococcus aureus [7] = test: Bactericidal activity against Staphylococcus aureus ATCC 43300 assessed as inhibition of bacterial growth incubated for 24 hrs by resazurin dye based microtiter plate assay; type: functional
Staphylococcus aureus [8] = test: Antibacterial activity against methicillin-resistant Staphylococcus aureus ATCC BAA-1720 assessed as inhibition of bacterial growth incubated for 20 to 24 hrs by broth micro dilution method; type: functional; details: time 20-24 hrs
Staphylococcus aureus [9] = test: Induction of morphological changes in Staphylococcus aureus ATCC 29213 assessed as enlargement of cell size at 0.5 times MIC for 4 hrs by microscopic analysis; type: functional, organism-based
[10] = target: T1, Cell division protein FtsZ (Staphylococcus aureus) (UniProt P0A031); test: Binding affinity to Staphylococcus aureus FtsZ assessed as decrease in beta turn structure at 8 ug/ml incubated for 30 mins by circular dichroism method; details: dose 8.0 µg/ml
T1 sequence (whole entry): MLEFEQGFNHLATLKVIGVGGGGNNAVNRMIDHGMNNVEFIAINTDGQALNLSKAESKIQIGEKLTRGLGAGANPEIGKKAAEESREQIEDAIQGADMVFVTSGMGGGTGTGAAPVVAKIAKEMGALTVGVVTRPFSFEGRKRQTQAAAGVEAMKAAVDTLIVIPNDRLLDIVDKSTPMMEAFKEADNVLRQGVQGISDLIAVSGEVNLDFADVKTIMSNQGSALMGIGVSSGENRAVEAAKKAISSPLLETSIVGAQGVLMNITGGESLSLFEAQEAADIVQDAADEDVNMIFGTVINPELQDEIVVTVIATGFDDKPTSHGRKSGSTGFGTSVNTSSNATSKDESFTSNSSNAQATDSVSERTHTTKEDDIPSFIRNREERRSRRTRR

Acinetobacter baumannii = test: Antibacterial activity against multi-drug resistant Acinetobacter baumannii ATCC 19606 assessed as inhibition of bacterial growth incubated for 20 to 24 hrs by broth micro dilution method; type: functional; details: time 20-24 hrs
[11] = target: T1, Cell division protein FtsZ (Staphylococcus aureus); test: Binding affinity to Staphylococcus aureus FtsZ assessed as equilibrium binding constant by isothermal titration calorimetry
[12] = target: T2, Cell division protein FtsZ (Staphylococcus aureus, UniProt P0A031); test: Binding affinity to Staphylococcus aureus FtsZ assessed as dissociation constant by isothermal titration calorimetry
T2 sequence (P0A031 whole entry): T1 sequence (whole entry)

[13] = target: T1, Cell division protein FtsZ (Staphylococcus aureus); test: Binding affinity to Staphylococcus aureus FtsZ assessed as decrease in random coil structure at 8 ug/ml incubated for 30 mins by circular dichroism method; details: dose 8.0 µg/ml
[14] = target: T1, Cell division protein FtsZ (Staphylococcus aureus); test: Induction of Staphylococcus aureus FtsZ polymerization expressed in Escherichia coli BL21 (DE3) assessed as increase in absorbance at 2 to 8 ug/ml in presence of GTP by microplate reader method; details: dose 2-8 µg/ml, DDE = dose-dependent effect
[15] = target: T1, Cell division protein FtsZ (Staphylococcus aureus); test: Induction of Staphylococcus aureus FtsZ polymerization expressed in Escherichia coli BL21 (DE3) assessed as increase in absorbance at 2 to 8 ug/ml by microplate reader method; details: dose 2-8 µg/ml
Staphylococcus aureus [16] = test: Antibacterial activity against vancomycin-intermediate Staphylococcus aureus Mu50 assessed as inhibition of bacterial growth incubated for 20 to 24 hrs by broth micro dilution method; type: functional; details: time 20-24 hrs
[17] = Cytotoxicity against mouse L929 cells incubated for 48 hrs by MTT assay; type: toxicity, cell-based
Klebsiella pneumoniae = test: Antibacterial activity against NDM-1 expressing Klebsiella pneumoniae ATCC BAA 2470 assessed as inhibition of bacterial growth incubated for 20 to 24 hrs by broth micro dilution method; type: functional; details: time 20-24 hrs
[18] = system: Staphylococcus epidermidis; test: Antibacterial activity against Staphylococcus epidermidis ATCC 12228 assessed as inhibition of bacterial growth incubated for 20 to 24 hrs by broth micro dilution method; type: functional; details: time 20-24 hrs
[19] = Ratio of MBC for bactericidal activity against Enterococcus faecium ATCC 700221 to MIC for antibacterial activity against Enterococcus faecium ATCC 700221; type: functional
Staphylococcus aureus [20] = test: Antibacterial activity against methicillin-resistant Staphylococcus aureus ATCC 33592 assessed as inhibition of bacterial growth incubated for 20 to 24 hrs by broth micro dilution method; type: functional; details: time 20-24 hrs
[21] = Ratio of MBC for bactericidal activity against Bacillus subtilis CMCC (B) 63501 to MIC for antibacterial activity against Bacillus subtilis CMCC (B) 63501; type: functional
Enterococcus faecium [22] = test: Antibacterial activity against Enterococcus faecium ATCC 49624 assessed as inhibition of bacterial growth incubated for 20 to 24 hrs by broth micro dilution method; type: functional; details: time 20-24 hrs
Bacillus subtilis [23] = test: Bactericidal activity against Bacillus subtilis CMCC (B) 63501 assessed as inhibition of bacterial growth incubated for 24 hrs by resazurin dye based microtiter plate assay; type: functional
[24] = Ratio of MBC for bactericidal activity against Staphylococcus aureus ATCC 29213 to MIC for antibacterial activity against Staphylococcus aureus ATCC 29213; type: functional
Staphylococcus aureus [25] = test: Synergistic antibacterial activity against methicillin-resistant Staphylococcus aureus ATCC BAA41 assessed as inhibition of bacterial growth incubated for 24 hrs in presence of methicillin by checker board assay; type: functional
[26] = Cytotoxicity against human HK-2 cells incubated for 48 hrs by MTT assay; type: toxicity, cell-based
Pseudomonas aeruginosa = test: Antibacterial activity against […] Pseudomonas aeruginosa ATCC 27853 assessed as inhibition of bacterial growth incubated for 20 to 24 hrs by broth micro dilution method; type: functional; details: time 20-24 hrs
Bacillus subtilis [27] = test: Induction of morphological changes in Bacillus subtilis CMCC (B) 63501 assessed as elongation of bacterial cell at 0.5 times MIC for 4 hrs (reference value: 3 to 5 um) by microscopic analysis; type: functional
[28] = Ratio of MBC for bactericidal activity against Staphylococcus aureus ATCC 43300 to MIC for antibacterial activity against Staphylococcus aureus ATCC 43300; type: functional
Bacillus subtilis [29] = test: Induction of drug resistance against Bacillus subtilis CMCC (B) 63501 measured after 16 passages; type: functional; details: dose <= 64.0 µg/ml, time 30.0 min
Staphylococcus aureus [30] = test: Bactericidal activity against Staphylococcus aureus ATCC 29213 assessed as inhibition of bacterial growth incubated for 24 hrs by resazurin dye based microtiter plate assay; type: functional
Staphylococcus aureus [31] = test: Antibacterial activity against Staphylococcus aureus ATCC 29213 infected in L929 cells assessed as inhibition of bacterial growth incubated for 20 to 24 hrs by broth micro dilution method; type: functional; details: time 20-24 hrs
Erythrocyte = test: Hemolytic activity in Kunming mouse erythrocyte at 1 to 64 ug/ml incubated for 1 hr; type: toxicity, cell-based; details: dose 1-64 µg/ml
Staphylococcus aureus [32] = test: Antibacterial activity against methicillin-resistant Staphylococcus aureus ATCC BAA41 assessed as inhibition of bacterial growth incubated for 24 hrs by checker board assay; type: functional
Staphylococcus aureus [33] = test: Antibacterial activity against Staphylococcus aureus ATCC 29213 assessed as inhibition of bacterial growth incubated for 20 to 24 hrs by broth micro dilution method; type: functional; details: time 20-24 hrs
[34] = target: T1, Cell division protein FtsZ (Staphylococcus aureus); test: Binding affinity to Staphylococcus aureus FtsZ assessed as increase in alpha helix structure at 8 ug/ml incubated for 30 mins by circular dichroism method; details: dose 8.0 µg/ml
Enterococcus faecium [35] = test: Antibacterial activity against vancomycin-resistant Enterococcus faecium clinical isolate assessed as inhibition of bacterial growth incubated for 20 to 24 hrs by broth micro dilution method; type: functional; details: time 20-24 hrs
Enterococcus faecium [36] = test: Antibacterial activity against vancomycin resistant Enterococcus faecium ATCC 700221 assessed as inhibition of bacterial growth incubated for 20 to 24 hrs by broth micro dilution method; type: functional; details: time 20-24 hrs
Escherichia coli [37] = test: Antibacterial activity against NDM-1 expressing Escherichia coli ATCC BAA2469 assessed as inhibition of bacterial growth incubated for 20 to 24 hrs by broth micro dilution method; type: functional; details: time 20-24 hrs
Escherichia coli [38] = test: Antibacterial activity against Escherichia coli ATCC 8739 assessed as inhibition of bacterial growth incubated for 20 to 24 hrs by broth micro dilution method; type: functional; details: time 20-24 hrs
[39] = target: T1, Cell division protein FtsZ (Staphylococcus aureus); test: Binding affinity to Staphylococcus aureus FtsZ assessed as decrease in other structure at 8 ug/ml incubated for 30 mins by circular dichroism method; details: dose 8.0 µg/ml
Staphylococcus aureus [40] = test: Antibacterial activity against Staphylococcus aureus ATCC 29213 infected in HK-2 cells assessed as inhibition of bacterial growth incubated for 20 to 24 hrs by broth micro dilution method; type: functional; details: time 20-24 hrs

CC1CCN(c2cc(/C=C/c3ccc(N(C)C)cc3)c3ccccc3[n+]2C)CC1.[I-]
MIC (Staphylococcus aureus [1]): 4 µg/mL | fold change (FC) (Staphylococcus aureus [2]): 8 | MIC (Bacillus subtilis [3]): 8 µg/mL | MIC (Enterococcus faecalis): 16 µg/mL | fractional inhibitory concentration index (FICI) (Staphylococcus aureus [4]): 0.3125 | MBC (Enterococcus faecium [5]): 8 µg/mL | MIC (Escherichia coli [6]): 32 µg/mL | MBC (Staphylococcus aureus [7]): 32 µg/mL | MIC (Staphylococcus aureus [8]): 4 µg/mL | Activity (Staphylococcus aureus [9]): Active | Activity [10]: Active | MIC (Acinetobacter baumannii): > 64 µg/mL | Kb [11]: 2.08 10^5/M | Kd [12]: 3.86 µM | Activity [13]: Active | Activity [14]: Dde | Activity [15]: Active | MIC (Staphylococcus aureus [16]): 4 µg/mL | IC50 at 48 h [17]: 11.3 µg/mL | MIC (Klebsiella pneumoniae): > 64 µg/mL | MIC [18]: 1 µg/mL | Ratio [19]: 4 | MIC (Staphylococcus aureus [20]): 4 µg/mL | Ratio [21]: 2 | MIC (Enterococcus faecium [22]): 16 µg/mL | MBC (Bacillus subtilis [23]): 16 µg/mL | Ratio [24]: >4 | MIC (Staphylococcus aureus [25]): 4 µg/mL | IC50 at 48 h [26]: 8.89 µg/mL | MIC (Pseudomonas aeruginosa): > 64 µg/mL | Activity (Bacillus subtilis [27]): 30 um | Ratio [28]: >4 | Activity (Bacillus subtilis [29]): Active | MBC (Staphylococcus aureus [30]): 16 µg/mL | MIC (Staphylococcus aureus [31]): 2 µg/mL | IC5 (Erythrocyte): 32 µg/mL | MIC (Staphylococcus aureus [32]): 16 µg/mL | MIC (Staphylococcus aureus [33]): 2 µg/mL | Activity [34]: Active | MIC (Enterococcus faecium [35]): 16 µg/mL | MIC (Enterococcus faecium [36]): 2 µg/mL | MIC (Escherichia coli [37]): 64 µg/mL | MIC (Escherichia coli [38]): 64 µg/mL | Activity [39]: Active | MIC (Staphylococcus aureus [40]): 2 µg/mL

CN(C)c1ccc(/C=C/c2cc(NCCCc3ccccc3)c3ccccc3[n+]2C)cc1.[I-]
MIC (Staphylococcus aureus [1]): 2 µg/mL | MIC (Bacillus subtilis [3]): 4 µg/mL | MIC (Enterococcus faecalis): 8 µg/mL | MIC (Escherichia coli [6]): > 64 µg/mL | MIC (Staphylococcus aureus [8]): 2 µg/mL | MIC (Acinetobacter baumannii): > 64 µg/mL | MIC (Staphylococcus aureus [16]): 4 µg/mL | MIC (Klebsiella pneumoniae): > 64 µg/mL | MIC [18]: 2 µg/mL | MIC (Staphylococcus aureus [20]): 2 µg/mL | MIC (Enterococcus faecium [22]): 4 µg/mL | MIC (Pseudomonas aeruginosa): > 64 µg/mL | MIC (Staphylococcus aureus [33]): 2 µg/mL | MIC (Enterococcus faecium [35]): 4 µg/mL | MIC (Enterococcus faecium [36]): 4 µg/mL | MIC (Escherichia coli [37]): > 64 µg/mL | MIC (Escherichia coli [38]): > 64 µg/mL
